# Assays:
# [1] = tested on: Wild-Type; format: cell-based, Escherichia coli
# [2] = tested on: ampicillin-resistant Escherichia coli; settings: resistance due to plasmid; cited from earlier work
# [3] = tested on: wild type (dnaQ+ strain); experiment: Ampicillin concentration-survival (colony forming) after mutagenesis runs, with or without MNNG; format: cell-based, Escherichia coli; settings: for Maximum concentration for ampicillin resistance: wild type and MNNG wild type
# [4] = tested on: dnaQ; format: cell-based, Escherichia coli
# [5] = tested on: Super-Amp-resistant dnaQ; format: cell-based, Escherichia coli
# [6] = tested on: dnaQ49 strain; experiment: Ampicillin concentration-survival (colony forming) after mutagenesis runs; format: cell-based, Escherichia coli; settings: for AC: Ampicillin Concentration (maximum concentration for ampicillin resistance): dnaQ49 strain
compound,measurement,setting,value
CC1(C)S[C@@H]2[C@H](NC(=O)[C@H](N)c3ccccc3)C(=O)N2[C@H]1C(=O)O [Ampicillin],Minimum growth inhibiting concentration (MIC),[1],1
same,Resistance concentration of ampicillin-resistant Escherichia coli reported up to now,[2],"1,500 μg/ml"
same,Ampicillin resistance of resistant microorganism obtained,"[3]; MNNG-treated group, low-concentration treatment",300 µg/mL
same,AC: Ampicillin Concentration (maximum concentration for ampicillin resistance),"[3]; Wild type (MNNG Concn 0), 1st Run",3 µg/mL
same,AC: Ampicillin Concentration (maximum concentration for ampicillin resistance),"[3]; Wild type (MNNG Concn 0), 2nd Run",10 µg/mL
same,AC: Ampicillin Concentration (maximum concentration for ampicillin resistance),"[3]; Wild type (MNNG Concn 0), 3rd Run",10 µg/mL
same,AC: Ampicillin Concentration (maximum concentration for ampicillin resistance),"[3]; Wild type (MNNG Concn 0), 4th Run",10 µg/mL
same,AC: Ampicillin Concentration (maximum concentration for ampicillin resistance),"[3]; Wild type (MNNG Concn 0), 5th Run",60 µg/mL
same,AC: Ampicillin Concentration (maximum concentration for ampicillin resistance),"[3]; Wild type (MNNG Concn 1), 1st Run",3 µg/mL
same,AC: Ampicillin Concentration (maximum concentration for ampicillin resistance),"[3]; Wild type (MNNG Concn 1), 2nd Run",10 µg/mL
same,AC: Ampicillin Concentration (maximum concentration for ampicillin resistance),"[3]; Wild type (MNNG Concn 1), 3rd Run",10 µg/mL
same,AC: Ampicillin Concentration (maximum concentration for ampicillin resistance),"[3]; Wild type (MNNG Concn 1), 4th Run",10 µg/mL
same,AC: Ampicillin Concentration (maximum concentration for ampicillin resistance),"[3]; Wild type (MNNG Concn 1), 5th Run",60 µg/mL
same,AC: Ampicillin Concentration (maximum concentration for ampicillin resistance),"[3]; Wild type (MNNG Concn 3), 1st Run",3 µg/mL
same,AC: Ampicillin Concentration (maximum concentration for ampicillin resistance),"[3]; Wild type (MNNG Concn 3), 2nd Run",30 µg/mL
same,AC: Ampicillin Concentration (maximum concentration for ampicillin resistance),"[3]; Wild type (MNNG Concn 3), 3rd Run",100 µg/mL
same,AC: Ampicillin Concentration (maximum concentration for ampicillin resistance),"[3]; Wild type (MNNG Concn 3), 4th Run",300 µg/mL
same,AC: Ampicillin Concentration (maximum concentration for ampicillin resistance),"[3]; Wild type (MNNG Concn 6), 1st Run",3 µg/mL
same,AC: Ampicillin Concentration (maximum concentration for ampicillin resistance),"[3]; Wild type (MNNG Concn 6), 2nd Run",6 µg/mL
same,AC: Ampicillin Concentration (maximum concentration for ampicillin resistance),"[3]; Wild type (MNNG Concn 6), 3rd Run",10 µg/mL
same,AC: Ampicillin Concentration (maximum concentration for ampicillin resistance),"[3]; Wild type (MNNG Concn 6), 4th Run",10 µg/mL
same,AC: Ampicillin Concentration (maximum concentration for ampicillin resistance),"[3]; Wild type (MNNG Concn 6), 5th Run",30 µg/mL
same,AC: Ampicillin Concentration (maximum concentration for ampicillin resistance),"[3]; Wild type (MNNG Concn 10), 1st Run",6 µg/mL
same,AC: Ampicillin Concentration (maximum concentration for ampicillin resistance),"[3]; Wild type (MNNG Concn 30), 1st Run",3 µg/mL
same,Maximum concentration for ampicillin resistance,[3]; after first mutagenesis,3˜6 μg/ml
same,Maximum concentration for ampicillin resistance,[3]; after second mutagenesis,6˜30 μg/ml
same,Minimum growth inhibiting concentration (MIC),[4],2
same,Minimum growth inhibiting concentration (MIC),[5],2048
same,Ampicillin resistance of strain obtained,"[6]; another dnaQ49 strain, five mutagenesis treatments (FIG. 7)","about 10,000 g/ml"
same,Ampicillin resistance from concentration-survival curve,"[6]; dnaQ49 strain before introduction of mutation, compared with wild type, 24° C., two days",slightly stronger ampicillin resistance than the wild type
same,AC: Ampicillin Concentration (maximum concentration for ampicillin resistance),[6]; 1st Run of mutagenesis,30 µg/mL
same,AC: Ampicillin Concentration (maximum concentration for ampicillin resistance),[6]; 2nd Run of mutagenesis,300 µg/mL
same,AC: Ampicillin Concentration (maximum concentration for ampicillin resistance),[6]; 3rd Run of mutagenesis,1000 µg/mL
same,AC: Ampicillin Concentration (maximum concentration for ampicillin resistance),[6]; 4th Run of mutagenesis,3000 µg/mL
same,AC: Ampicillin Concentration (maximum concentration for ampicillin resistance),[6]; 5th Run of mutagenesis,6000 µg/mL
same,AC: Ampicillin Concentration (maximum concentration for ampicillin resistance),"[6]; 5th Run of mutagenesis, listed as ampicillin","about 6,000 μg/ml"
O=C(N[C@H](CO)[C@H](O)c1ccc([N+](=O)[O-])cc1)C(Cl)Cl [Chloramphenicol],Minimum growth inhibiting concentration (MIC),[1],0.5
same,Minimum growth inhibiting concentration (MIC),[4],1
same,Minimum growth inhibiting concentration (MIC),[5],0.5
CO/N=C(\C(=O)N[C@@H]1C(=O)N2C(C(=O)O)=C(COC(C)=O)CS[C@H]12)c1csc(N)n1 [Cefotaxime],Minimum growth inhibiting concentration (MIC),[1],0.0156
same,Minimum growth inhibiting concentration (MIC),[4],0.0313
same,Minimum growth inhibiting concentration (MIC),[5],64
same,Resistance of ampicillin-resistant dnaQ49 strain to other antibiotic substances (MIC investigation),[5],strong resistance

# From US6949383B2 (priority 1998, dated 2005)
